Reference: patent EP4588908A1, “NEW PROSTACYCLIN FOR TREATING PULMONARY HYPERTENSION” (Shanghai Forefront Pharma Co., Ltd., priority 2023, dated 2025)

Columns and labels:
male Sprague-Dawley rats [1] = test: Hemodynamic measurement (RVSP by right cardiac catheterization) in MCT-modelled PAH rats; assay type: in vivo
Method: (§1) Twenty-eight 7-week-old male Sprague-Dawley rats (average weight of 200-250 g) were purchased from Vital River and were raised at the experimental site for 1 week of acclimatization (temperature 20°C-26°C, humidity 30%-70%, light-dark cycle ratio 1:1) until they were 8 weeks old.
(§2) Twenty-eight rats were randomized into the following 6 groups, including dosing groups, positive control groups, a negative control group and a healthy control group, and each was marked with ear tags.
(§3) • (1) Preparation of monocrotaline (MCT) solution: An adequate amount of MCT was weighed into a 50 mL solution of 20% ethanol-normal saline. After gentle shaking, the solution was transferred to a 50-mL centrifuge tube, and placed tilted in a thermostatic shaker at 37°C, 220 rpm for 12-14 hours to fully dissolve until no visible crystalline particles observed. • (2) Injection of MCT solution: The skin on the dorsal cervical region of the rats was gently lifted, MCT solution was subcutaneously injected at a dose of 60 mg/kg using a 1-mL syringe and the day was recorded as Day 0. • (3) Healthy control: The same volume of normal saline was injected in the same manner.
(§4) According to the concentration of 0.6 mg/mL and 1.2 mg/mL (3-mg/kg/day and 6-mg/kg/day dose groups), appropriate amounts of the test compound were weighed and dissolved in corresponding volume of pure water by shaking to obtain transparent solution, respectively; • (2) The resulting solutions were stored in a 4°C refrigerator. Remove and equilibrate to room temperature before use;
(§5) Starting from Day 14, the rats were weighed daily, and the corresponding solutions (test compound or normal saline) were administered intragastrically according to the grouping protocol until Day 27, for a total of 14 days; the intragastric dose was 0.5 mL/100 g, and the body weight and survival data of the rats were recorded.
On Day 28, the hemodynamic status of the rats was assessed using right cardiac catheterization: • (1) The PE-50 catheter, pressure transducer and pressure measuring workstation were prepared; the tubing was rinsed with heparinized saline to ensure that no bubbles remained in the tubing; the catheter was corrected to zero; • (2) The rats were anesthetized with 2% isoflurane at a flow rate of 2 L/min, and their limbs and incisors were fixed on the operating table with the cranial end to the operator; • (3) The fur on the surgical area of cervical region was shaved; • (4) The cervical skin was cut along the midline, pulled and fixed using hemostats, and the tissue was separated layer by layer using scissors to expose the right internal jugular vein; • (5) The internal jugular vein was bluntly dissected and isolated using hemostats; • (6) The distal end of the internal jugular vein was ligated using 4-0 sutures, and a suture was passed through the proximal end for later use; • (7) A V-shaped incision was made in the internal jugular vein using ophthalmic scissors, and a PE-50 catheter was inserted through the incision. After the catheter was placed, the pre-placed suture at the proximal end of the internal jugular vein was ligated to secure the catheter; • (8) The catheter reached the right atrium and right ventricle in turn; the right atrial pressure and right ventricular pressure were recorded; at least 5 stable waveforms were recorded at each site; 5 continuous waveforms were taken as segments, and more than 2 segments were intercepted to calculate the right ventricular systolic pressure (RVSP); • (9) The PE-50 catheter was removed and the examination was completed.

[2] = Dissolution in water when preparing the test compound solutions; assay type: physicochemical; conditions: pure water; 0.6 mg/mL and 1.2 mg/mL gave transparent solution
Method: as §4

male Sprague-Dawley rats [3] = test: Fulton index measurement RV/(LV+S) in MCT-modelled PAH rats; assay type: in vivo
Method: as §1, §2, §3, §4, §5
The tube was shaken upside down 6-8 times to mix; • (3) The lungs and heart were exposed by further opening the chest cavity; • (4) The left atrial appendage was cut open, a tube of heparinized saline was slowly injected using a 5-mL syringe into the right atrial appendage to flush the pulmonary vessels; • (5) The rat heart, lung, liver, spleen and kidney tissues were kept and frozen, and fixed with formaldehyde solution.
After separating the heart, the non-ventricular parts (such as the atria, blood vessels, and valve rings) were cut off. The intraventricular thrombus was removed as much as possible using forceps. The right ventricle (RV) and left ventricle (LV) + ventricular septum (LV+S) were separated by cutting along tense junction between the RV and interventricular septum (S) using straight scissors. The tissues were dried with gauze and weighed separately. RV/(LV+S) was calculated as the Fulton index. [drawing 107]

[4] = 3 mg/kg/day intragastric from Day 14, MCT 60 mg/kg rats, negative control 63±7.34, healthy control 22±2.41
[5] = 6 mg/kg/day intragastric from Day 14, MCT 60 mg/kg rats, negative control 63±7.34, healthy control 22±2.41
[6] = 3 mg/kg/day intragastric from Day 14, MCT 60 mg/kg rats, RV/(LV+S), negative control 0.61, healthy control 0.29
[7] = 6 mg/kg/day intragastric from Day 14, MCT 60 mg/kg rats, RV/(LV+S), negative control 0.61, healthy control 0.29
[8] = 60(30mpk bid) mg/kg/day, Group 7, same experimental method

In the case of `CCCCC[C@H](O)CC[C@@H]1[C@H]2Cc3cccc(OCC(=O)O)c3C[C@H]2C[C@H]1O` [Compound C1, Treprostinil sodium 5.5-hydrate], the “RVSP mmHg” value (male Sprague-Dawley rats [1]; [4]) is reported as 46 ± 13.45 mmHg, the “RVSP mmHg” value (male Sprague-Dawley rats [1]; 3 mg/kg/day intragastric from Day 14, MCT 60 mg/kg rats, negative control 63±7.34, healthy control 22±2.41, listed as Compound C1M) is reported as 46+13.45 mmHg and the “RVSP mmHg” value (male Sprague-Dawley rats [1]; [5]) is reported as 38 ± 8.86 mmHg. For the same compound, the “RVSP mmHg” value (male Sprague-Dawley rats [1]; 6 mg/kg/day intragastric from Day 14, MCT 60 mg/kg rats, negative control 63±7.34, healthy control 22±2.41, listed as Compound C1H) was 38+8.86 mmHg, the Solubility in water [2] was “can be directly dissolved in water” and the Fulton index (male Sprague-Dawley rats [3]; [6]) was 0.38 ± 0.10. The Fulton index (male Sprague-Dawley rats [3]; 3 mg/kg/day intragastric from Day 14, MCT 60 mg/kg rats, RV/(LV+S), negative control 0.61, healthy control 0.29, listed as Compound C1M) was 0.38+0.10, the Fulton index (male Sprague-Dawley rats [3]; [7]) was 0.37 ± 0.07 and the Fulton index (male Sprague-Dawley rats [3]; 6 mg/kg/day intragastric from Day 14, MCT 60 mg/kg rats, RV/(LV+S), negative control 0.61, healthy control 0.29, listed as Compound C1H) was 0.37+0.07.

For `CCCCC[C@H](O)CC[C@H]1[C@H](O)[C@@H](CC)[C@@H]2Cc3c(cccc3OCC(=O)O)C[C@@H]21` [Compound 1], the “RVSP mmHg” value (male Sprague-Dawley rats [1]; [4]) was 41 ± 16.27 mmHg, the “RVSP mmHg” value (male Sprague-Dawley rats [1]; 3 mg/kg/day intragastric from Day 14, MCT 60 mg/kg rats, negative control 63±7.34, healthy control 22±2.41, listed as Compound 1M) was 41±16.27 mmHg and the “RVSP mmHg” value (male Sprague-Dawley rats [1]; [5]) was 22 ± 4.36 mmHg. For the same compound, the “RVSP mmHg” value (male Sprague-Dawley rats [1]; 6 mg/kg/day intragastric from Day 14, MCT 60 mg/kg rats, negative control 63±7.34, healthy control 22±2.41, listed as Compound 1H) was 22+4.36 mmHg, the Solubility in water [2] was “can be directly dissolved in water” and the Fulton index (male Sprague-Dawley rats [3]; [6]) was 0.37 ± 0.12. The Fulton index (male Sprague-Dawley rats [3]; 3 mg/kg/day intragastric from Day 14, MCT 60 mg/kg rats, RV/(LV+S), negative control 0.61, healthy control 0.29, listed as Compound 1M) was 0.37+0.12, the Fulton index (male Sprague-Dawley rats [3]; [7]) was 0.25 ± 0.27 and the Fulton index (male Sprague-Dawley rats [3]; 6 mg/kg/day intragastric from Day 14, MCT 60 mg/kg rats, RV/(LV+S), negative control 0.61, healthy control 0.29, listed as Compound 1H) was 0.25±0.27.

In the case of `O=C(O)COC[C@H]1CC[C@H](COC(=O)N(c2ccccc2)c2ccc(Cl)cc2)CC1` [Ralinepag], the “RVSP mmHg” value (male Sprague-Dawley rats [1]; [8]) is reported as 22 mmHg and the Fulton index (male Sprague-Dawley rats [3]; [8]) is reported as 0.35.
